From patent US8148391B2 (Cephalon, Inc., priority 2006, dated 2012)
Where two headings read alike, the source gives them in different places.

What was measured:
[1] = target: T1, c-Met (cytoplasmic domain) (Homo sapiens, UniProt P08581); experiment: c-Met Kinase Assay (same methods as for ALK, with modifications); format: biochemical
T1 construct: 10 ng/mL c-Met (cytoplasmic domain, Invitrogen Corporation #PV3143); purchased Invitrogen Corporation PV3143
Procedure, shortened: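 Steps: coat wells with PLC-γ (10 μg/mL, Tris-buffered saline); add 10 ng/mL c-Met cytoplasmic domain to initiate; incubate 15 min, 37° C; detect phosphoproduct via Eu-N1 PT66 antibody.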

[2] = target: T2, baculovirus-expressed ALK (Homo sapiens, UniProt Q9UM73); experiment: ALK Kinase Assay (ELISA-type, time-resolved fluorescence); format: biochemical
T2 construct: host or cells: baculovirus expression system
Procedure, shortened: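 Wells were coated with phospholipase C-γ at 10 μg/mL in Tris-buffered saline. Adding 30 ng/ml enzyme started the reaction, which ran at 37° C for 15 minutes before Eu-N1 PT66 antibody detection. Percent inhibition versus log10 concentration gave IC50 by variable-slope fit.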

[3] = 1 μM ATP (Km level), 10 ng/mL c-Met, read-out: cMet Activity (c-Met kinase inhibition, IC50 class)
[4] = 1 μM ATP (Km level), 30 ng/ml ALK, 37° C., 15 minutes, read-out: ALK Activity (ALK kinase inhibition, IC50 class)
[5] = c-Met kinase inhibition, 1 μM ATP, read-out: cMet Activity
[6] = ALK kinase inhibition, 1 μM ATP, read-out: ALK Activity
[7] = c-Met kinase inhibition, 1 μM ATP (Km level), read-out: cMet Activity
[8] = ALK kinase inhibition, 1 μM ATP (Km level), read-out: ALK Activity
[9] = 1 μM ATP (Km level), read-out: cMet Activity (c-Met Kinase Inhibition, IC50)
[10] = 1 μM ATP (Km level), read-out: ALK Activity (ALK Kinase Inhibition, IC50)

T1 sequence (P08581 956-1390 limits assumed): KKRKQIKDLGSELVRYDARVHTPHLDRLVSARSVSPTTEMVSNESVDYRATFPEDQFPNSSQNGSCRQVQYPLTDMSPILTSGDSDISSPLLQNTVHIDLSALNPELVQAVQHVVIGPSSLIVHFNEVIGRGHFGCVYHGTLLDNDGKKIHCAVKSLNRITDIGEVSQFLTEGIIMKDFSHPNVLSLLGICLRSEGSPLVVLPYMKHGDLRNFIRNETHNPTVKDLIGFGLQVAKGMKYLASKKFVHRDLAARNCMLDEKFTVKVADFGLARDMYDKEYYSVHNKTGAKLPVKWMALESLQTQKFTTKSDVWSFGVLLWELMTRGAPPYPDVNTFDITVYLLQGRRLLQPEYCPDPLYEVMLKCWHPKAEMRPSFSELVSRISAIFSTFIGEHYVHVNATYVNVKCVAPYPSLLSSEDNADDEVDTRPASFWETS
T2 sequence (Q9UM73 19-1620): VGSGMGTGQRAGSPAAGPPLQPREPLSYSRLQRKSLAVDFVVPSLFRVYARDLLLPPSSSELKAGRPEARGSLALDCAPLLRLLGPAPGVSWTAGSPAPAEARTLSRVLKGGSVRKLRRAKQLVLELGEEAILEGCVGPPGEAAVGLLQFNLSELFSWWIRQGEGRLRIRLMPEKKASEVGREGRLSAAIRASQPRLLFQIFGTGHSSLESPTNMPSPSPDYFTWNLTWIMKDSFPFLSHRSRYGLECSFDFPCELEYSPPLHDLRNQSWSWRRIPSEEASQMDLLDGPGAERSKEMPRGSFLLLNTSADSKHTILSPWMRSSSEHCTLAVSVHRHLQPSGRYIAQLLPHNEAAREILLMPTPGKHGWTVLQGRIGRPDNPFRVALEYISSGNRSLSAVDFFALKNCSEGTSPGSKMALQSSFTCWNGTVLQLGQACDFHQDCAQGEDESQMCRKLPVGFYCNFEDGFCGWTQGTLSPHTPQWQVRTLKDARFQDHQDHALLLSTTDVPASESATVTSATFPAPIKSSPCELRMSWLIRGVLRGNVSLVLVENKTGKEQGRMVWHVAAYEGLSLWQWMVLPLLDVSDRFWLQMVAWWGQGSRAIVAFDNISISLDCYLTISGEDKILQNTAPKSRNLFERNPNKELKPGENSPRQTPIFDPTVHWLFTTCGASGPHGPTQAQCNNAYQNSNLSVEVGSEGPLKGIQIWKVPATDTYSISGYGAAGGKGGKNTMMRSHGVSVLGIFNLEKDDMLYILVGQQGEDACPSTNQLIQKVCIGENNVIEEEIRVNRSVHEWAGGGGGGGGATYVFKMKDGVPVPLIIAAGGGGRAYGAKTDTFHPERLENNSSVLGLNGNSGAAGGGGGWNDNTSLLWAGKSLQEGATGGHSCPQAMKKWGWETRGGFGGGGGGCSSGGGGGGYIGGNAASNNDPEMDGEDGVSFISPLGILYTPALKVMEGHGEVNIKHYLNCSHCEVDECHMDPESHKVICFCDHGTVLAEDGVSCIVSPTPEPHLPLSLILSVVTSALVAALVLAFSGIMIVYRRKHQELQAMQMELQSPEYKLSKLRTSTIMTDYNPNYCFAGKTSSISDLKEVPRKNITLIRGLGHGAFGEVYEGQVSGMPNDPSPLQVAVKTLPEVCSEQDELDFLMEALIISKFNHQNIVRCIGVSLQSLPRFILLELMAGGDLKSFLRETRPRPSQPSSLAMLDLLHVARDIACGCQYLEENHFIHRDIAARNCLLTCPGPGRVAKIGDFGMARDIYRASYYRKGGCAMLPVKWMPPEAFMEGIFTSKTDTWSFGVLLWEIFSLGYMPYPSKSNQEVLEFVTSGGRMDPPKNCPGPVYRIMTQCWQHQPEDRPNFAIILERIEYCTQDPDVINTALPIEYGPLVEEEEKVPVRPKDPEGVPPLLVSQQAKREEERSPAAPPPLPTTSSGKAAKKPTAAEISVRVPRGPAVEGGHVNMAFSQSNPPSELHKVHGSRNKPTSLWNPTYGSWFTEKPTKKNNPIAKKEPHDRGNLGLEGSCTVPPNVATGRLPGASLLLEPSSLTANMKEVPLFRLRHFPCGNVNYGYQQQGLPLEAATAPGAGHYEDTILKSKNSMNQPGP

CNC(=O)CN1CCc2cc(Nc3ncc(Cl)c(Nc4ccccc4C(=O)NC)n3)c(OC)cc2CC1 [Example 1114, 2-[5-Chloro-2-(8-methoxy-3-methylcarbamoylmethyl-2,3,4,5-tetrahydro-1H-benzo[d]azepin-7-ylamino)-pyrimidin-4-ylamino]-N-methyl-benzamide]
IC50 [1, 3]: 1000 to 10000 nM | IC50 [2, 4]: < 100 nM

COc1cc2c(cc1Nc1ncc(Cl)c(Nc3ccccc3S(=O)(=O)N3CCC(O)C3)n1)CCN(CCO)CC2 (stereo not drawn) [Example 1551, 1-(2-{5-Chloro-2-[3-(2-hydroxy-ethyl)-8-methoxy-2,3,4,5-tetrahydro-1H-3-benzazepin-7-ylamino]-pyrimidin-4-ylamino}-benzenesulfonyl)-pyrrolidin-3-ol]
IC50 [1, 5]: 100 to 1000 nM | IC50 [2, 6]: < 100 nM

CNC(=O)c1cnn(C)c1Nc1nc(Nc2ccc3c(c2)CC(=O)N(C)CC3)ncc1Cl [Example 1821, 5-[5-Chloro-2-(3-methyl-4-oxo-2,3,4,5-tetrahydro-1H-benzo[d]azepin-7-ylamino)-pyrimidin-4-ylamino]-1-methyl-1H-pyrazole-4-carboxylic acid methylamide]
IC50 [1, 5]: 100 to 1000 nM | IC50 [2, 6]: 100 to 1000 nM

CN1CCNCc2cc(Nc3ncc(Cl)c(Nc4ccccc4NS(C)(=O)=O)n3)ccc21 [Example 421, N-{2-[5-Chloro-2-(1-methyl-2,3,4,5-tetrahydro-1H-benzo[e][1,4]diazepin-7-ylamino)-pyrimidin-4-ylamino]-phenyl}-methanesulfonamide]
IC50 [1, 7]: 100 to 1000 nM | IC50 [2, 8]: < 100 nM

COCCOc1cccc(F)c1Nc1nc(Nc2ccc3c(c2)CCOC(=O)N3C)ncc1Cl [Example 1778, 2-{5-Chloro-4-[2-fluoro-6-(2-methoxy-ethoxy)-phenylamino]-pyrimidin-2-ylamino}-5-methyl-8,9-dihydro-5H-7-oxa-5-aza-benzocyclohepten-6-one]
IC50 [1, 5]: 100 to 1000 nM | IC50 [2, 6]: 100 to 1000 nM

CNC(=O)c1ccccc1Nc1nc(Nc2ccc3c(c2)CNC(=O)CCN3)ncc1Cl [Example 1302, 2-[5-Chloro-2-(4-oxo-1,2,3,4,5,6-hexahydro-benzo[b][1,5]diazocin-8-ylamino)-pyrimidin-4-ylamino]-N-methyl-benzamide]
IC50 [1, 3]: < 100 nM | IC50 [2, 4]: < 100 nM

CS(=O)(=O)N[C@@H]1CCCC[C@H]1Nc1nc(Nc2ccc3c(c2)CCN(C[C@H](O)C(F)(F)F)CC3)ncc1Cl [Example 329, N-((1R,2R)-2-{5-Chloro-2-[3-((S)-3,3,3-trifluoro-2-hydroxy-propyl)-2,3,4,5-tetrahydro-1H-benzo[d]azepin-7-ylamino]-pyrimidin-4-ylamino}-cyclohexyl)-methanesulfonamide]
IC50 [1, 7]: 1000 to 10000 nM | IC50 [2, 8]: < 100 nM

CNC(=O)c1ccccc1Nc1nc(Nc2cccc3c2CN(C(C)=O)CCN3)ncc1Cl [Example 236, 2-[2-(4-Acetyl-2,3,4,5-tetrahydro-1H-benzo[e][1,4]diazepin-6-ylamino)-5-chloro-pyrimidin-4-ylamino]-N-methyl-benzamide]
IC50 [1, 7]: 1000 to 10000 nM | IC50 [2, 8]: 100 to 1000 nM

COCCN1CCc2ccc(Nc3ncc(Cl)c(Nc4ccccc4S(=O)(=O)C(C)C)n3)cc2CC1 [Example 1685, 5-Chloro-N*2*-[3-(2-methoxy-ethyl)-2,3,4,5-tetrahydro-1H-benzo[d]azepin-7-yl]-N*4*-[2-(propane-2-sulfonyl)-phenyl]-pyrimidine-2,4-diamine]
IC50 [1, 5]: 100 to 1000 nM | IC50 [2, 6]: < 100 nM

CNC(=O)c1sccc1Nc1nc(Nc2ccc3c(c2)N(CCOC)C(=O)CCC3)ncc1Cl [Example 1478, 3-{5-Chloro-2-[1-(2-methoxy-ethyl)-2-oxo-2,3,4,5-tetrahydro-1H-benzo[b]azepin-8-ylamino]-pyrimidin-4-ylamino}-thiophene-2-carboxylic acid methylamide]
IC50 [1, 5]: < 100 nM | IC50 [2, 6]: 100 to 1000 nM

COCCN1CCc2ccc(Nc3ncc(Cl)c(N[C@@H]4CCC[C@H]4NS(C)(=O)=O)n3)cc2CC1 (relative stereo) [Example 371, N-(trans-2-{5-Chloro-2-[3-(2-methoxy-ethyl)-2,3,4,5-tetrahydro-1H-benzo[d]azepin-7-ylamino]-pyrimidin-4-ylamino}-cyclopentyl)-methanesulfonamide]
IC50 [1, 7]: 1000 to 10000 nM | IC50 [2, 8]: 100 to 1000 nM

CNC(=O)c1ccccc1Nc1nc(Nc2cccc3c2C(=O)NC(C)CN3C(=O)C(F)(F)F)ncc1Cl (stereo not drawn) [Example 229, 2-{5-Chloro-2-[3-methyl-5-oxo-1-(2,2,2-trifluoro-acetyl)-2,3,4,5-tetrahydro-1H-benzo[e][1,4]diazepin-6-ylamino]-pyrimidin-4-ylamino}-N-methyl-benzamide]
IC50 [1, 7]: > 10000 nM | IC50 [2, 8]: > 10000 nM

CNC(=O)c1cccc(F)c1Nc1nc(Nc2ccc3c(c2)CCN(CC(=O)N(C)C)CC3)ncc1Cl [Example 1369, 2-[5-Chloro-2-(3-dimethylcarbamoylmethyl-2,3,4,5-tetrahydro-1H-benzo[d]azepin-7-ylamino)-pyrimidin-4-ylamino]-3-fluoro-N-methyl-benzamide]
IC50 [1, 3]: < 100 nM | IC50 [2, 4]: < 100 nM

COc1cc2c(cc1Nc1ncc(Cl)c(N[C@H]3[C@@H](C(N)=O)[C@@H]4C=C[C@H]3C4)n1)C(C)(C)CCC(=O)N2 [Example 1312]
IC50 [1, 3]: > 10000 nM | IC50 [2, 4]: < 100 nM

CC1(C)CCC(=O)Nc2cc(Nc3ncc(Cl)c(Nc4ccccc4S(=O)(=O)N4CCC(O)C4)n3)ccc21 (stereo not drawn) [Example 1621, 8-{5-Chloro-4-[2-(3-hydroxy-pyrrolidine-1-sulfonyl)-phenylamino]-pyrimidin-2-ylamino}-5,5-dimethyl-1,3,4,5-tetrahydro-benzo[b]azepin-2-one]
IC50 [1, 5]: < 100 nM | IC50 [2, 6]: < 100 nM

CNC(=O)c1cccc(F)c1Nc1nc(Nc2ccc3c(c2)CN(C)C(=O)CC3)ncc1Cl [Example 1806, 3-Fluoro-2-[5-chloro-2-(2-methyl-3-oxo-2,3,4,5-tetrahydro-1H-benzo[c]azepin-8-ylamino)-pyrimidin-4-ylamino]-N-methyl-benzamide]
IC50 [1, 5]: < 100 nM | IC50 [2, 6]: 1000 to 10000 nM

CCN1C(=O)[C@H](N)CCc2c1ccc(Nc1ncc(Cl)c(N[C@H]3[C@@H](C(N)=O)[C@@H]4C=C[C@H]3C4)n1)c2OC (single isomer, unassigned) [Example 1331]
IC50 [1, 3]: > 10000 nM | IC50 [2, 4]: < 100 nM

COc1cc2c(cc1Nc1ncc(Cl)c(Nc3ccccc3S(=O)(=O)N(C)C)n1)CCC(NCCO)CC2 (stereo not drawn) [Example 1089, 2-{5-Chloro-2-[7-(2-hydroxy-ethylamino)-3-methoxy-6,7,8,9-tetrahydro-5H-benzocyclohepten-2-ylamino]-pyrimidin-4-ylamino}-N,N-dimethyl-benzenesulfonamide]
IC50 [1, 3]: 1000 to 10000 nM | IC50 [2, 4]: < 100 nM

COc1cc2c(cc1Nc1ncc(Cl)c(Nc3ccccc3S(=O)(=O)N3CCC(O)C3)n1)CCN(CC(C)O)CC2 (stereo not drawn) [Example 1552, 1-(2-{5-Chloro-2-[3-(2-hydroxy-propyl)-8-methoxy-2,3,4,5-tetrahydro-1H-3-benzazepin-7-ylamino]-pyrimidin-4-ylamino}-benzenesulfonyl)-pyrrolidin-3-ol]
IC50 [1, 5]: 1000 to 10000 nM | IC50 [2, 6]: < 100 nM

CN1CCN(C2CCN(C3CCc4ccc(Nc5ncc(Cl)c(N[C@H]6[C@@H](C(N)=O)[C@@H]7C=C[C@H]6C7)n5)cc4CC3)CC2)CC1 (stereo partly drawn) [Example 887, (1S,2S,3R,4R)-3-(5-Chloro-2-{7-[4-(4-methyl-piperazin-1-yl)-piperidin-1-yl]-6,7,8,9-tetrahydro-5H-benzocyclohepten-2-ylamino}-pyrimidin-4-ylamino)-bicyclo[2.2.1]hept-5-ene-2-carboxylic acid amide]
IC50 [1, 9]: 100 to 1000 nM | IC50 [2, 10]: < 100 nM

COc1ccc(Nc2nc(Nc3cc4c(cc3OC)CCN(CC(=O)N(C)C)CC4)ncc2Cl)c(S(=O)(=O)N(C)C)c1 [Example 820, 2-{7-[5-Chloro-4-(2-dimethylsulfamoyl-4-methoxy-phenylamino)-pyrimidin-2-ylamino]-8-methoxy-1,2,4,5-tetrahydro-benzo[d]azepin-3-yl}-N,N-dimethyl-acetamide]
IC50 [1, 9]: > 10000 nM | IC50 [2, 10]: < 100 nM

COc1cc2c(cc1Nc1ncc(Cl)c(N[C@H]3[C@@H](C(N)=O)[C@@H]4C=C[C@H]3C4)n1)CCN(CC(=O)N1CCN(C)CC1)CC2 [Example 1539, (1S,2S,3R,4R)-3-(5-Chloro-2-{8-methoxy-3-[2-(4-methyl-piperazin-1-yl)-2-oxo-ethyl]-2,3,4,5-tetrahydro-1H-3-benzazepin-7-ylamino}-pyrimidin-4-ylamino)-bicyclo[2.2.1]hept-5-ene-2-carboxylic acid amide]
IC50 [1, 5]: > 10000 nM | IC50 [2, 6]: < 100 nM

CCN1CCCC(C)(C)c2ccc(Nc3ncc(Cl)c(Nc4ccc(N5CCOCC5)cc4OC)n3)cc21 [Example 1635, 5-Chloro-N*2*-(1-ethyl-5,5-dimethyl-2,3,4,5-tetrahydro-1H-benzo[b]azepin-8-yl)-N*4*-(2-methoxy-4-morpholin-4-yl-phenyl)-pyrimidine-2,4-diamine]
IC50 [1, 5]: > 10000 nM | IC50 [2, 6]: 100 to 1000 nM

COc1ccc2c(c1Nc1ncc(Cl)c(Nc3ccccc3-c3nccn3C)n1)NC(=O)CCC2(C)C [Example 998, 9-{5-Chloro-4-[2-(1-methyl-1H-imidazol-2-yl)-phenylamino]-pyrimidin-2-ylamino}-8-methoxy-5,5-dimethyl-1,3,4,5-tetrahydro-benzo[b]azepin-2-one]
IC50 [1, 9]: > 10000 nM | IC50 [2, 10]: > 10000 nM
